# Measured values as given in patent US9328143B2, “Peptide derivatives and use thereof as carriers for molecules in the form of conjugates” (VECT-HORUS, priority 2008, dated 2016).
# Where two headings read alike, the source gives them in different places.
# Columns and labels:
# [1] = In situ perfusion in mouse, transport across the blood-retinal barrier; assay type: in vivo; conditions: mouse, in vivo
# Description: (§1) This strategy of in situ brain perfusion normally carried out in the rat was adapted for mouse (Dagenais et al., 2000, J Cereb Blood Flow Metab., 20(2), 381-6) in order to broaden its application for evaluating the parameters of transport kinetics at the BBB and the blood-retinal barrier, in transgenic and KO mutant mice for the receptors, enzymes or transporters of active substances. It involves catheterisation of a carotid artery in anaesthetised OF 1 mice and ligature of some branches of this carotid artery (external, thyroidal, occipital) in order to specifically perfuse the internal carotid and pterygopalatine arteries, which are used to evaluate the uptake in the brain of the vectors and conjugates. The catheter makes it possible to replace general circulation by infusion with a well-controlled perfusate (bicarbonate buffer, plasma or blood) by passing by the carotid. Oxygenated Krebs bicarbonate buffer is first used to evaluate the capacities of the vectors and conjugates to gain access to the brain. After catheterisation of the carotid, endogenous blood flow is stopped by sectioning the ventricles of the heart in order to avoid the mixture of buffer with blood and elevation in blood pressure. The duration of the fixed flow-rate perfusion is monitored. The buffer perfusion can be extended up to 20 min, or up to 1 h in the presence of oxygen transporters (washed erythrocytes) for studies of receptor-mediated transport (RMT).
# In addition, the Kin of these various peptides, across the blood-retinal barrier (BRB), were also determined. Kin of SEQ ID NO: 11=1.2±0.2×10^−4 ml/s/g Kin of SEQ ID NO: 48=2.4±0.3×10^−4 ml/s/g Kin of SEQ ID NO: 73=0.0±0.0×10^−4 ml/s/g Kin of SEQ ID NO: 72=11.5±3.3×10^−4 ml/s/g Kin of SEQ ID NO: 74=1.8±0.2×10^−4 ml/s/g
# hLDLR [2] = target: T1, hLDLR (Homo sapiens, UniProt P01130); experiment: FACS: binding of bacterial viruses expressing peptides to CHO-hLDLR-GFP cells; set-up: expressed in transfected cells; conditions: peptide expressed by bacterial virus clone, vs control bacterial viruses, 20 min at 4° C.
# T1 sequence (P01130 22-860): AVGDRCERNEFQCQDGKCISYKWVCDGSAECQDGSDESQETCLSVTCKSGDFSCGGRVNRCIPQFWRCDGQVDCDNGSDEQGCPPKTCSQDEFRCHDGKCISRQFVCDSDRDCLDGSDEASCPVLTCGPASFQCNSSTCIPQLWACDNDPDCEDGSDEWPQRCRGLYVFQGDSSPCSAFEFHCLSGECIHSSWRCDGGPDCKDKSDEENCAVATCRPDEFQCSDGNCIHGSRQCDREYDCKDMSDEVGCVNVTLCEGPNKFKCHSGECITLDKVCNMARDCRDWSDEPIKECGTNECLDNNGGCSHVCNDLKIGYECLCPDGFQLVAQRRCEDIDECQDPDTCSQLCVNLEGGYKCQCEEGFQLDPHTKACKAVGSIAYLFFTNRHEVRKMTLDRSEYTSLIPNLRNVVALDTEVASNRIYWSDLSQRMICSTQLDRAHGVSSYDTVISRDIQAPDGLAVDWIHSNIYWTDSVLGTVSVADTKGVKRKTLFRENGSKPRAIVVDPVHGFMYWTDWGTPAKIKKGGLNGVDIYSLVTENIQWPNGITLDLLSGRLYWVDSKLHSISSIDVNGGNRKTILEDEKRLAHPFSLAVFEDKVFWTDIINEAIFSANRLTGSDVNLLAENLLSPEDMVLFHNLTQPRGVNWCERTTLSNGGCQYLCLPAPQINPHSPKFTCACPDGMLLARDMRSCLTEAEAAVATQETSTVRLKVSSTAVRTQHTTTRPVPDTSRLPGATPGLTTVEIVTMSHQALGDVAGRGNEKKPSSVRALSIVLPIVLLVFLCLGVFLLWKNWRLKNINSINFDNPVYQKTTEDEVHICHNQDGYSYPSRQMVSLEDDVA
# Experimental: Evaluation by FACS of the interaction between CHO-hLDLR-GFP cells and a clone of bacterial viruses expressing peptide SEQ ID NO: 11 with affinity for hLDLR compared with control bacterial viruses not expressing peptides with affinity for this receptor.
# (§2) Qualitative immunocytochemistry was supplemented with quantitative flow cytometry (FACS) with suspended cells (GFP cell line, CHO-hLDLR-GFP cell line, human fibroblasts, HUVEC). These cells were grown in culture medium, mechanically unbound and dissociated (without trypsin), centrifuged, resuspended and incubated in the presence of various bacterial virus clones and anti-LDLR antibody, for 20 min at 4° C. in order to avoid any process of endocytosis. After washings, the bacterial viruses bound to cells were visualised with anti-viral envelope protein antibody. FACS analyses were carried out with a FACSCanto system (Becton Dickinson) using BD FACSDiva software. The number of positive cells was standardised with 5,000 events for each test. The results were expressed in arbitrary units of fluorescence.
# (§3) FIGS. 9, 10, 11 correspond to the results obtained for peptides SEQ ID NO: 11, SEQ ID NO: 12 and SEQ ID NO: 21 on cells of the CHO-hLDLR-GFP cell line (FIG. 9), human fibroblasts (FIG. 10) and HUVEC (FIG. 11).
# [3] = In situ brain perfusion in mouse, transport across the BBB; assay type: in vivo; conditions: mouse, in vivo
# Experimental: The in situ brain perfusion technique (in adult male OF1 mouse) is used here to select the best vectors and to provide proof of their mechanism of action for their passage in the brain across the BBB.
# Radioactive peptides with high specific radioactivity (SRA, up to 100 Ci/mmol) are prepared by a strategy of acylation of the N-term amine function by tritiated propionic (or propanoic) anhydride or tritiated N-propionyl-succinimide (NPS).
# The tritiation reaction of peptide vectors SEQ ID NO: 11 and SEQ ID NO: 48 in the N-term position by propionylation is carried out in DMF (1 mg peptide in 100 μl to 450 μl according to solubility) by adding 0.1 equivalent of tritiated NPS for 5 min at room temperature, then 0.9 equivalent of cold NPS (non-tritiated) for 1 h, and then a new equivalent of cold NPS for 5 h. The reaction medium is then left at 4° C. overnight and purified the following day by HPLC. The SRA for each tritiated peptide is between 5 Ci/mmol and 10 Ci/mmol (theoretically on the order of 7.7 Ci/mmol). The total quantity of radioactivity prepared by synthesis is between 600 μCi and 950 μCi.
# The techniques briefly summarised below were developed to study the distribution in the brain of active substances and, in particular, the role of the BBB and, more particularly, of LDLR in the penetration of these molecules in the brain. In situ brain perfusion techniques are among the most technically demanding and the most difficult to perform in the mouse. However, in situ brain perfusion (like in vitro models) enables total control of the composition of the artificial perfusate in order to maintain the cells and vascularisation of the brain under normal physiological and anatomical conditions within the animal, without the disrupting factor of systemic distribution.
# as §1
# The study of peptide vector SEQ ID NO: 11 made it possible to determine its brain transport or transfer coefficient (Kin). The duration of brain perfusion for these experiments is 5 min with a perfusate flow rate of 2 ml/min. Thus, the calculation of the Kin (volume of distribution over time of brain perfusion) of peptide vector SEQ ID NO: 11 gives a value of 3.5±0.2×10^−4 ml/s/g.
# hLDLR [4] = target: T1, hLDLR; experiment: FACS on HUVEC: competition between peptides expressed by bacterial viruses and natural ligand LDL; assay type: binding; set-up: endogenous in cells; host or cells: HUVEC (human umbilical vein endothelial cells), not genetically modified
# Description: Evaluation by FACS on HUVEC of competition between the peptides expressed by the bacterial viruses with affinity for LDLR and its natural ligand LDL.
# I—Graph representing the percentage of shift of the fluorescence signal in zone Q2 of graphs A-H obtained by FACS. […] Adding LDL leads to an 85% loss of signal in Q2 in […], indicating competition between the bacterial virus corresponding to peptide sequence SEQ ID NO: 21 and LDL at the site where LDL binds to hLDLR. The equally strong signal in Q2 of the bacterial viruses that express peptide SEQ ID NO: 11 (shift greater than 70% compared to control bacterial viruses) is only slightly shifted (17%) by adding LDL.
# First, it is shown that the binding rate of bacterial viruses expressing peptides with affinity for hLDLR (SEQ ID NO: 21 and SEQ ID NO: 11 are used here as examples) is proportional to the level of LDLR expression by HUVEC. FACS experiments carried out in the presence of LDL made it possible to show and quantify a strong shift (85%) of LDL by linear peptides (for example SEQ ID NO: 21), but a small shift (17%) by cyclic peptides (for example SEQ ID NO: 11).
# hLDLR [5] = target: T1, hLDLR; experiment: FACS: binding of bacterial viruses expressing peptides to HUVEC; set-up: endogenous in cells; host or cells: HUVEC (human umbilical vein endothelial cells), not genetically modified
# Experimental: Evaluation by FACS of the interaction between HUVEC and two clones of bacterial viruses expressing peptides, one cyclic (SEQ ID NO: 11), the other linear (SEQ ID NO: 21), with affinity for hLDLR, compared with control bacterial viruses not expressing peptides with affinity for this receptor.
# as §2, §3
# hLDLR [6] = target: T1, hLDLR; experiment: Immunocytochemistry: bacterial viruses on CHO-GFP (control) and CHO-hLDLR-GFP cell lines; assay type: binding; set-up: expressed in transfected cells; conditions: CHO cell line expressing GFP alone; peptide expressed by bacterial virus clone
# Description: CHO cell lines stably expressing A—GFP alone (green), and B—hLDLR-GFP (green), and immunostaining with an anti-viral envelope protein antibody of a clone of bacterial viruses expressing a peptide (SEQ ID NO: 1) with affinity for hLDLR (red dots). Cell nuclei are stained with Hoechst (blue, A1 and B1). GFP fluorescence is visible in green (A2 and B2), that of the staining of the viral envelope of the bacterial virus by the viral anti-protein antibody is visible in red (A3 and B3) and the superimposing of red and green stains is visible in yellow/orange (A4 and B4).
# The bacterial virus clones identified following the binding of the peptides, which they express and which bind to hLDLR-GFP expressed by the stable CHO-hLDLR-GFP cell line, were brought together with LDLR cells and, after intensive washing, were detected with an antibody directed against the viral envelope protein of the bacterial virus followed by a second antibody coupled with Alexa 594 (FIG. 7).
# [7] = test system: mouse brain vessel endothelial cells; experiment: Tail vein injection of bacterial viruses in C57BL6 mice, immunostaining of brain sections; assay type: in vivo; conditions: 15 min and 2 h post injection, peptide expressed by bacterial viruses
# Experimental: Double immunofluorescent staining of frozen sections of C57BL6 mouse brain, 2 h after mouse tail vein injection of control bacterial viruses (A-B) and bacterial viruses expressing a peptide (SEQ ID NO: 1) with affinity for hLDLR and mLDLR (C-D). Brain vessels are stained with anti-mouse IgG, in green (A-C); bacterial viruses are stained with anti-viral envelope protein antibody, in red (B-D).
# Bacterial viruses expressing peptides with affinity for hLDLR (SEQ ID NO: 1 is described here for example) and control bacterial viruses (not expressing peptide with affinity for hLDLR) were injected into the tail veins of C57BL6 mice anaesthetised with halothane. After 15 min and 2 h post injection, the mice were sacrificed and perfused with 0.9% NaCl. Brains, livers and kidneys were frozen in isopentane and frozen sections were prepared for double immunohistochemical staining to visualise blood vessels with anti-mouse IgG and anti-viral envelope protein antibody to visualise bacterial viruses bound to endothelial cells in vivo.
# hLDLR [8] = target: T1, hLDLR; experiment: FACS: binding of bacterial viruses expressing peptides to human fibroblasts; set-up: endogenous in cells; host or cells: HUVEC (human umbilical vein endothelial cells), not genetically modified; conditions: peptide expressed by bacterial virus clone, vs control bacterial viruses
# Experimental: Evaluation by FACS of the interaction between human fibroblasts and a clone of bacterial viruses expressing peptide SEQ ID NO: 12 with affinity for hLDLR, compared with control bacterial viruses not expressing peptides with affinity for this receptor.
# as §2, §3
# [9] = Pan et al., 2004; cited from earlier work
# [10] = Demeule et al., 2008; cited from earlier work
substance,measurement,setting,value
DSGLCMPRLRGCDPR [SEQ ID NO: 11],Kin across the blood-retinal barrier (BRB),[1],1.2±0.2 ×10^−4 ml/s/g
same,shift of the signal in Q2 (FACS),hLDLR [2],significant shift
same,Kin (brain transport or transfer coefficient),[3],3.5±0.2 ×10^−4 ml/s/g
same,effect of LDL on binding of peptides expressed by bacterial viruses,"hLDLR [4]; FACS, LDL added",No effect
same,loss/shift of signal in Q2 on adding LDL,"hLDLR [4]; peptide expressed by bacterial viruses, in the presence of LDL",17%
same,shift of the signal in Q2 (FACS),"hLDLR [5]; peptide expressed by bacterial virus clone, vs control bacterial viruses",significant shift
same,percentage of shift of the fluorescence signal in zone Q2,"hLDLR [5]; peptide expressed by bacterial viruses, without LDL",greater than 70%
HLDCMPRGCFRN [SEQ ID NO: 1],binding of bacterial viruses to cells that do not express hLDLR,hLDLR [6],do not bind
same,binding to brain vessel wall endothelial cells in vivo,[7],bind to vessel wall endothelial cells
MTVMPTGLWNPLIPS [SEQ ID NO: 12],shift of the signal in Q2 (FACS),hLDLR [8],significant shift
RAP protein: RAP protein; literature Kin value,Kin,[9],1e-05 mL/s/g
"transferrin: transferrin, ligand of TfR; literature Kin value",Kin,[10],0.0003 mL/s/g
